Data published in ChEMBL document CHEMBL4406839, “Design, synthesis and biological evaluation of a new series of thiazolyl-pyrazolines as dual EGFR and HER2 inhibitors” (Eur J Med Chem, 2019).

Tests used:
[1] = system: A549; assay: Antiproliferative activity aganist human A549 cells incubated for 72 hrs by MTT assay; assay type: functional, cell-based; details: A549, 72 h
[2] = system: MCF7; assay: Antiproliferative activity aganist human MCF7 cells incubated for 72 hrs by MTT assay; assay type: functional, cell-based; details: MCF7, 72 h
[3] = system: A-375; assay: Antiproliferative activity aganist human A375 cells incubated for 72 hrs by MTT assay; assay type: functional, cell-based; details: A-375, 72 h
[4] = system: Jurkat; assay: Antiproliferative activity aganist human Jurkat cells incubated for 72 hrs by MTT assay; assay type: functional, cell-based
[5] = system: PBMC; assay: Cytotoxicity against human PBMC cells assessed as reduction in cell viability incubated for 72 hrs by MTT assay; assay type: cell-based
[6] = Selectivity index, ratio of IC50 for human PBMC cells to IC50 for human Jurkat cells; assay type: toxicity; details: PBMC cells and Jurkat cells, read-out: Ratio IC50
[7] = system: A549; assay: Induction of apoptosis in human A549 cells at IC50 incubated for 24 hrs by Annexin V-FITC/ethidium homodimer 3 staining based fluorescence microscopic method relative to control; assay type: functional
[8] = system: A549; assay: Induction of apoptosis in human A549 cells assessed as increase in apoptosis/necrosis cells at IC50 incubated for 24 hrs by Annexin V-FITC/ethidium homodimer 3 staining based fluorescence microscopic method relative to control; assay type: functional
[9] = system: A549; assay: Induction of apoptosis in human A549 cells assessed as increase in necrosis cells at IC50 incubated for 24 hrs by Annexin V-FITC/ethidium homodimer 3 staining based fluorescence microscopic method relative to control; assay type: functional
[10] = system: MCF7; assay: Induction of apoptosis in human MCF7 cells at IC50 incubated for 24 hrs by Annexin V-FITC/ethidium homodimer 3 staining based fluorescence microscopic method relative to control; assay type: functional
[11] = system: MCF7; assay: Induction of apoptosis in human MCF7 cells assessed as increase in apoptosis/necrosis cells at IC50 incubated for 24 hrs by Annexin V-FITC/ethidium homodimer 3 staining based fluorescence microscopic method relative to control; assay type: functional
[12] = system: MCF7; assay: Induction of apoptosis in human MCF7 cells assessed as increase in necrosis cells at IC50 incubated for 24 hrs by Annexin V-FITC/ethidium homodimer 3 staining based fluorescence microscopic method relative to control; assay type: functional
[13] = target: Epidermal growth factor receptor (Homo sapiens, UniProt P00533); assay: Inhibition of recombinant human N-terminal GST-tagged EGFR (695 to end residues) expressed in baculovirus infected Sf9 insect cells using Poly (4:1 Glu, Tyr) peptide as substrate incubated for 1 hr by ADP-Glo assay
[14] = target: Receptor tyrosine-protein kinase erbB-2 (Homo sapiens, UniProt P04626); assay: Inhibition of recombinant human N-terminal GST-tagged HER2 (676 to end residues) expressed in baculovirus infected Sf9 insect cells using Poly (4:1 Glu, Tyr) peptide as substrate incubated for 1 hr by ADP-Glo assay
[15] = target: Receptor tyrosine-protein kinase erbB-4 (Homo sapiens, UniProt Q15303); assay: Inhibition of recombinant human N-terminal GST-tagged HER4 (682 to 993 residues) expressed in baculovirus infected Sf9 insect cells using Poly (4:1 Glu, Tyr) peptide as substrate incubated for 1 hr by ADP-Glo assay
[16] = target: Insulin-like growth factor 1 receptor (Homo sapiens, UniProt P08069); assay: Inhibition of recombinant human N-terminal His-tagged IGF1R (960 to end residues) expressed in baculovirus infected Sf9 insect cells using IGF1Rtide as substrate incubated for 1 hr by ADP-Glo assay
[17] = target: Insulin receptor (Homo sapiens, UniProt P06213); assay: Inhibition of recombinant human N-terminal GST-tagged INSR (1011 to end residues) expressed in baculovirus infected Sf9 insect cells using Axltide as substrate incubated for 1 hr by ADP-Glo assay
[18] = target: Vascular endothelial growth factor receptor 2 (Homo sapiens, UniProt P35968); assay: Inhibition of recombinant human N-terminal GST-tagged KDR (789 to end residues) expressed in baculovirus infected Sf9 insect cells using Poly (4:1 Glu, Tyr) peptide as substrate incubated for 1 hr by ADP-Glo assay
[19] = target: Platelet-derived growth factor receptor alpha (Homo sapiens, UniProt P16234); assay: Inhibition of recombinant human N-terminal GST-tagged PDGFRalpha (550 to end residues) expressed in baculovirus infected Sf9 insect cells using Poly (4:1 Glu, Tyr) peptide as substrate incubated for 1 hr by ADP-Glo assay
[20] = target: Platelet-derived growth factor receptor beta (Homo sapiens, UniProt P09619); assay: Inhibition of recombinant human N-terminal GST-tagged PDGFRbeta (557 to end residues) expressed in baculovirus infected Sf9 insect cells using Poly (4:1 Glu, Tyr) peptide as substrate incubated for 1 hr by ADP-Glo assay
Sequence of Platelet-derived growth factor receptor beta (P09619 whole entry): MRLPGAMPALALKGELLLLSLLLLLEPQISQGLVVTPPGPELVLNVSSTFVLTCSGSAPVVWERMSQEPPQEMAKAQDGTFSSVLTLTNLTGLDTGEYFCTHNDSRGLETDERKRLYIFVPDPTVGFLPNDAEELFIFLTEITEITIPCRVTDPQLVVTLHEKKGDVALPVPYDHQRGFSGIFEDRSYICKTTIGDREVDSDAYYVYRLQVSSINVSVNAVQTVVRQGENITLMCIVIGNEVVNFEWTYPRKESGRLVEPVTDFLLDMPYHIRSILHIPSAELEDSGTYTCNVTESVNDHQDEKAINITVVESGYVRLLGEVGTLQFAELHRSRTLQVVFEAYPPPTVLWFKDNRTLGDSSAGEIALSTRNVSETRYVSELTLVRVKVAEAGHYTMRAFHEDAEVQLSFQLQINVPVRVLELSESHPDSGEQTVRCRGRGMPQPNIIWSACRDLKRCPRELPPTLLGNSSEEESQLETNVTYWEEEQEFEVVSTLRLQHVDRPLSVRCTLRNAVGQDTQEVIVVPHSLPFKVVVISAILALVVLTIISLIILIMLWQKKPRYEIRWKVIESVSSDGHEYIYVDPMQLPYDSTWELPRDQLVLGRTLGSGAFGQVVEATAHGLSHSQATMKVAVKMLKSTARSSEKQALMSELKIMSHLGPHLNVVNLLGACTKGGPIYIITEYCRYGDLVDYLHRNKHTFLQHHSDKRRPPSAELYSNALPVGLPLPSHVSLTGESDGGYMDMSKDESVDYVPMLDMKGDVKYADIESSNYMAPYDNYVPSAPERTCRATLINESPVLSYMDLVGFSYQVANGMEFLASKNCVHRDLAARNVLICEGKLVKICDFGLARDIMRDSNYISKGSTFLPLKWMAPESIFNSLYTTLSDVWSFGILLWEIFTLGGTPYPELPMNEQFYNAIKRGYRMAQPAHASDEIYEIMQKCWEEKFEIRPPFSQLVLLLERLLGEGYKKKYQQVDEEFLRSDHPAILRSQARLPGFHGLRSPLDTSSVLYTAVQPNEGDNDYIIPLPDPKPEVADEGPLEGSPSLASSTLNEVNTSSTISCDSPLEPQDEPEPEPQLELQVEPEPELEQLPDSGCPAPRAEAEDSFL

Sequence of Insulin-like growth factor 1 receptor (P08069 31-736 limits assumed): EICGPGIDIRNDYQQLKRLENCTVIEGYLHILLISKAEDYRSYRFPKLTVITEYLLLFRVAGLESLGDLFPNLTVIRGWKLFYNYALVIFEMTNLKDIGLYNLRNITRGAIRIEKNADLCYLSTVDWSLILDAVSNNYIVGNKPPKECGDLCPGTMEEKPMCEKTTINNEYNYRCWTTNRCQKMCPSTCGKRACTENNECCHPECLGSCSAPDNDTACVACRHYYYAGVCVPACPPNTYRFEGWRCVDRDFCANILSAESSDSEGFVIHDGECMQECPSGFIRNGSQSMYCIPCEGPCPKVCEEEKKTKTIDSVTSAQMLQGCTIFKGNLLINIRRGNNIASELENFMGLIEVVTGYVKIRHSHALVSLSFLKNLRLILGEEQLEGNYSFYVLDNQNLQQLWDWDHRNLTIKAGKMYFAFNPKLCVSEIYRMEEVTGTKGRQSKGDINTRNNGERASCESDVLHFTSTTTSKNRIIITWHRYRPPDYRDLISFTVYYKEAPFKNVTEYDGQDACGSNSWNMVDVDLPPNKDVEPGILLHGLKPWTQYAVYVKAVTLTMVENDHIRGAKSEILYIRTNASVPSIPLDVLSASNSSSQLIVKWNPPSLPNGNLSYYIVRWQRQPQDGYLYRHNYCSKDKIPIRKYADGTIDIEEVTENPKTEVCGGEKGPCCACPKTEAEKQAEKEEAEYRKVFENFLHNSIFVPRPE
Sequence of Insulin-like growth factor 1 receptor (P08069 741-1367 limits assumed): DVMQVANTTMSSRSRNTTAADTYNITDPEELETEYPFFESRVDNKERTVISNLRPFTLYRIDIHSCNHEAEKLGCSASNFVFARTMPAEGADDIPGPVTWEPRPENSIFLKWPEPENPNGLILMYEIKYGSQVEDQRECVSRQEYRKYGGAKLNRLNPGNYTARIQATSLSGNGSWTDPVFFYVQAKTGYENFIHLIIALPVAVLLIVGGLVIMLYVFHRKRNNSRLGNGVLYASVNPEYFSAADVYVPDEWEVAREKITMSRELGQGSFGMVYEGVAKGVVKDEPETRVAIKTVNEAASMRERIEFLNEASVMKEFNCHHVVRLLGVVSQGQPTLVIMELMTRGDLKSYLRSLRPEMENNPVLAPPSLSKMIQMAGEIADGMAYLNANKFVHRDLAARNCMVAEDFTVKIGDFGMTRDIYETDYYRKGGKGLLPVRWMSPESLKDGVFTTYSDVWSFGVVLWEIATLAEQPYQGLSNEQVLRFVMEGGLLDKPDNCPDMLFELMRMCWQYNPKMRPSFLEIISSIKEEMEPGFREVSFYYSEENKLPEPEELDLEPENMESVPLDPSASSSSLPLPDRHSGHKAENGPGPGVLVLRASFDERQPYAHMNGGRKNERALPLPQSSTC
Sequence of Insulin receptor (P06213 28-758 limits assumed): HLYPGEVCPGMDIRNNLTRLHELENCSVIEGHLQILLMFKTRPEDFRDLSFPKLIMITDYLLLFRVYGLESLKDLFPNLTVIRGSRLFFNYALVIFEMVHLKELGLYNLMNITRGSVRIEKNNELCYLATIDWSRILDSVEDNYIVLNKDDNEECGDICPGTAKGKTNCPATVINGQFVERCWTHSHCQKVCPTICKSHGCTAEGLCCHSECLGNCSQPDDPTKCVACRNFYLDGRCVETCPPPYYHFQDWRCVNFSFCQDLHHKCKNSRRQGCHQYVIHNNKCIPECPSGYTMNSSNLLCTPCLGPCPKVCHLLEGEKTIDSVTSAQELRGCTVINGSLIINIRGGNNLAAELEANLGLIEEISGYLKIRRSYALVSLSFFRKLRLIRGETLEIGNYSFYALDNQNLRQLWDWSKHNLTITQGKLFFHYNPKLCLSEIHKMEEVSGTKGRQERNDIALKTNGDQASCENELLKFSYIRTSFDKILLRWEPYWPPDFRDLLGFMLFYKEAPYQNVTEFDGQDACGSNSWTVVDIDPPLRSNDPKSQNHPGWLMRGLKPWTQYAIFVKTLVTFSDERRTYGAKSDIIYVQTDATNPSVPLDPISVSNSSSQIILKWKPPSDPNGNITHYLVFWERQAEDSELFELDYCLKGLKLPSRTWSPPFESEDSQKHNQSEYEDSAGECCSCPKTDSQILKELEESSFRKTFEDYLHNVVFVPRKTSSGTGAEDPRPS
Sequence of Insulin receptor (P06213 763-1382 limits assumed): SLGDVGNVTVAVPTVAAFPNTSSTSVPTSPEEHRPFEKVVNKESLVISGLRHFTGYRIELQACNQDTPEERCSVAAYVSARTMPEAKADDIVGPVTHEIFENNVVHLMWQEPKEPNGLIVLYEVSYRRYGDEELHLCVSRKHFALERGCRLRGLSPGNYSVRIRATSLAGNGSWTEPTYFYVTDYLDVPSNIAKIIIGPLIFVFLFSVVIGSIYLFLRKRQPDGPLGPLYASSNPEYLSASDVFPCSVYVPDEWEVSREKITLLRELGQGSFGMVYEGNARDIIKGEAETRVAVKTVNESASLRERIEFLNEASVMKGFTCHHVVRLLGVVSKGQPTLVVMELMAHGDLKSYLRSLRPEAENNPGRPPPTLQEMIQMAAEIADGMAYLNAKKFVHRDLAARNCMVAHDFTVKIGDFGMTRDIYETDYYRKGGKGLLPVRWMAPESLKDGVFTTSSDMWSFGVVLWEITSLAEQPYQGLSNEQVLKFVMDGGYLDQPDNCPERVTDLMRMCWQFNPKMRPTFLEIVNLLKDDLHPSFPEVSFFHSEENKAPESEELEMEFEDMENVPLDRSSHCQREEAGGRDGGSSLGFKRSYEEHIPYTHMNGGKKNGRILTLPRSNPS
Sequence of Platelet-derived growth factor receptor alpha (P16234 whole entry): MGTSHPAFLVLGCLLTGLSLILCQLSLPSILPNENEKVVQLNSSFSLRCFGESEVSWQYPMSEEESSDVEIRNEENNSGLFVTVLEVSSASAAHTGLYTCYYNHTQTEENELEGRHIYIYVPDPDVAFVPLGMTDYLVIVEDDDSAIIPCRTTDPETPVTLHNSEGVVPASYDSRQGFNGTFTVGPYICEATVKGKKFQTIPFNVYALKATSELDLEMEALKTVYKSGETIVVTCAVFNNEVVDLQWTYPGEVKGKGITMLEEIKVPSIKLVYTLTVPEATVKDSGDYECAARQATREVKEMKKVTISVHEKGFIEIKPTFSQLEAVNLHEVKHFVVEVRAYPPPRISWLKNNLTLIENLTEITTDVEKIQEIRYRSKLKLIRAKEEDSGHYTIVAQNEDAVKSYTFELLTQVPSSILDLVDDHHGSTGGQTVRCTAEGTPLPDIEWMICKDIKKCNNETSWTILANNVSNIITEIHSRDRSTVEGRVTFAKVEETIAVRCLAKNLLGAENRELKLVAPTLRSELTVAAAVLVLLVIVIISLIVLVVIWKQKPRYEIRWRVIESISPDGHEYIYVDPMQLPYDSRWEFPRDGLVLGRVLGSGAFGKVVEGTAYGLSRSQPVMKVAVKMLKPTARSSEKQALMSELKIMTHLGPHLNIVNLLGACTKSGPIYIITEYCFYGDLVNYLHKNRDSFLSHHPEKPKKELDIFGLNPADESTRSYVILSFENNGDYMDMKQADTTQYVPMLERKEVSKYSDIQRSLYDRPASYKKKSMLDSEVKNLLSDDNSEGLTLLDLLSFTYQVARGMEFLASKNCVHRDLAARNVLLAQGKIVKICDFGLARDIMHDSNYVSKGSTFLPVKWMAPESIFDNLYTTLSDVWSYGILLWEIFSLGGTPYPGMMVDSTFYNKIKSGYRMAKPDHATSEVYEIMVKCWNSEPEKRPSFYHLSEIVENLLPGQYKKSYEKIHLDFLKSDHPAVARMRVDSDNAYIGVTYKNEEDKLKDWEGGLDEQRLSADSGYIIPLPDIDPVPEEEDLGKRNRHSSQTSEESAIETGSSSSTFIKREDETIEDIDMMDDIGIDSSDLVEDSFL

Row | SMILES | IC50 [1] [µM] | IC50 [2] [µM] | IC50 [3] [µM] | other results
1 | NC(=S)N1N=C(c2ccc(N3CCOCC3)cc2)CC1c1ccc(Cl)cc1 (stereo not drawn) | > 100 | 37.4 | > 100 | –
2 | O=[N+]([O-])c1ccc(-c2csc(N3N=C(c4ccc(N5CCCCC5)cc4)CC3c3ccc(Cl)cc3)n2)cc1 (stereo not drawn) | > 100 | > 100 | > 100 | –
3 | Fc1ccc(-c2csc(N3N=C(c4ccc(N5CCOCC5)cc4)CC3c3ccc(Cl)cc3)n2)cc1 (stereo not drawn) | 8.95 | 9.59 | 84.4 | IC50 [4]: 23.4 µM; IC50 [5]: > 300 µM; selectivity ratio [6]: > 10; Activity [7]: 65%; Activity [8]: 23%; Activity [9]: 12%; Activity [10]: 78%; Activity [11]: 14%; Activity [12]: 8%; IC50 [13]: 23.3 µM; IC50 [14]: 6.96 µM; IC50 [15]: 1.5 µM; IC50 [16]: 3.28 µM; IC50 [17]: 9.79 µM; IC50 [18]: 10.5 µM; IC50 [19]: > 30 µM; IC50 [20]: > 30 µM
4 | FC(F)(F)c1ccc(-c2csc(N3N=C(c4ccc(N5CCCCC5)cc4)CC3c3ccc(Cl)cc3)n2)cc1 (stereo not drawn) | 42 | 23.7 | 64.2 | –
5 | Clc1ccc(-c2csc(N3N=C(c4ccc(N5CCOCC5)cc4)CC3c3ccc(Cl)cc3)n2)cc1 (stereo not drawn) | 19 | 14.9 | 75.9 | –
6 | Clc1ccc(C2CC(c3ccc(N4CCCCC4)cc3)=NN2c2nc(-c3ccc(Br)cc3)cs2)cc1 (stereo not drawn) | 39.7 | > 100 | > 100 | –
7 | N#Cc1ccc(-c2csc(N3N=C(c4ccc(N5CCCCC5)cc4)CC3c3ccc(Cl)cc3)n2)cc1 (stereo not drawn) | 11.2 | 9.76 | 38.7 | IC50 [4]: 29.5 µM; IC50 [5]: 299 µM; selectivity ratio [6]: > 10; Activity [7]: 77%; Activity [8]: 15%; Activity [9]: 8%; Activity [10]: 63%; Activity [11]: 27%; Activity [12]: 10%; IC50 [13]: 4.71 µM; IC50 [14]: > 30 µM; IC50 [15]: 29 µM; IC50 [16]: > 30 µM; IC50 [17]: > 30 µM; IC50 [18]: 25.6 µM; IC50 [19]: > 30 µM; IC50 [20]: > 30 µM
8 | CS(=O)(=O)c1ccc(-c2csc(N3N=C(c4ccc(N5CCOCC5)cc4)CC3c3ccc(Cl)cc3)n2)cc1 (stereo not drawn) | 10.7 | 67.2 | > 100 | –
9 | C#Cc1cccc(Nc2ncnc3cc(OCCOC)c(OCCOC)cc23)c1 [ERLOTINIB] | 22.4 | 8.24 | 27.3 | IC50 [4]: 12.1 µM; IC50 [5]: 39.3 µM; Activity [7]: 72%; Activity [8]: 19%; Activity [9]: 9%; Activity [10]: 66%; Activity [11]: 21%; Activity [12]: 13%
10 | Clc1ccc(C2CC(c3ccc(N4CCOCC4)cc3)=NN2c2nc(-c3ccc(Br)cc3)cs2)cc1 (stereo not drawn) | 94.3 | 70.6 | > 100 | –
11 | Fc1ccc(-c2csc(N3N=C(c4ccc(N5CCCCC5)cc4)CC3c3ccc(Cl)cc3)n2)cc1 (stereo not drawn) | 70.2 | 23.1 | 71.4 | –
12 | Clc1ccc(C2CC(c3ccc(N4CCCCC4)cc3)=NN2c2nc(-c3ccccc3)cs2)cc1 (stereo not drawn) | 64.2 | 28.4 | 65.8 | –
13 | O=[N+]([O-])c1ccc(-c2csc(N3N=C(c4ccc(N5CCOCC5)cc4)CC3c3ccc(Cl)cc3)n2)cc1 (stereo not drawn) | > 100 | > 100 | > 100 | –
14 | FC(F)(F)c1ccc(-c2csc(N3N=C(c4ccc(N5CCOCC5)cc4)CC3c3ccc(Cl)cc3)n2)cc1 (stereo not drawn) | 39.3 | > 100 | > 100 | –
15 | Clc1ccc(C2CC(c3ccc(N4CCCCC4)cc3)=NN2c2nc(-c3ccc4ccccc4c3)cs2)cc1 (stereo not drawn) | > 100 | > 100 | > 100 | –
16 | COc1ccc(-c2csc(N3N=C(c4ccc(N5CCCCC5)cc4)CC3c3ccc(Cl)cc3)n2)cc1 (stereo not drawn) | > 100 | > 100 | > 100 | –
17 | Cc1ccc(-c2csc(N3N=C(c4ccc(N5CCOCC5)cc4)CC3c3ccc(Cl)cc3)n2)cc1 (stereo not drawn) | > 100 | > 100 | > 100 | –
18 | Clc1ccc(C2CC(c3ccc(N4CCOCC4)cc3)=NN2c2nc(-c3ccccc3)cs2)cc1 (stereo not drawn) | 76.5 | 52.1 | > 100 | –
19 | N#Cc1ccc(-c2csc(N3N=C(c4ccc(N5CCOCC5)cc4)CC3c3ccc(Cl)cc3)n2)cc1 (stereo not drawn) | 10.8 | 8.05 | 53.5 | IC50 [4]: 41 µM; IC50 [5]: 299 µM; selectivity ratio [6]: > 10; Activity [7]: 68%; Activity [8]: 19%; Activity [9]: 13%; Activity [10]: 51%; Activity [11]: 32%; Activity [12]: 27%; IC50 [14]: 2.28 µM; IC50 [15]: 4.68 µM; IC50 [16]: 10.3 µM; IC50 [17]: > 30 µM; IC50 [18]: 10.8 µM; IC50 [19]: > 30 µM; IC50 [20]: > 30 µM
20 | Clc1ccc(-c2csc(N3N=C(c4ccc(N5CCCCC5)cc4)CC3c3ccc(Cl)cc3)n2)cc1 (stereo not drawn) | 46.4 | > 100 | > 100 | –
21 | CS(=O)(=O)c1ccc(-c2csc(N3N=C(c4ccc(N5CCCCC5)cc4)CC3c3ccc(Cl)cc3)n2)cc1 (stereo not drawn) | > 100 | > 100 | > 100 | –
22 | Cc1ccc(-c2csc(N3N=C(c4ccc(N5CCCCC5)cc4)CC3c3ccc(Cl)cc3)n2)cc1 (stereo not drawn) | > 100 | > 100 | > 100 | –
23 | Clc1ccc(C2CC(c3ccc(N4CCOCC4)cc3)=NN2c2nc(-c3ccc4ccccc4c3)cs2)cc1 (stereo not drawn) | > 100 | > 100 | > 100 | –
24 | NC(=S)N1N=C(c2ccc(N3CCCCC3)cc2)CC1c1ccc(Cl)cc1 (stereo not drawn) | 33.8 | 22.3 | > 100 | –
25 | COc1ccc(-c2csc(N3N=C(c4ccc(N5CCOCC5)cc4)CC3c3ccc(Cl)cc3)n2)cc1 (stereo not drawn) | > 100 | > 100 | > 100 | –
